# Experimental data as given in patent publication US20100003246A1, “Novel heterocyclic compounds and uses therof” (priority 2008, published 2010).
# Molecular target: T1, b-Raf(V600E) (Homo sapiens, UniProt P15056, V600E)
# T1 construct: made in house
# Test: Raf/Mek Amplified Luminescence Proximity Homogeneous Assay (Alpha Screen), b-Raf(V600E)
# Format: biochemical
# Details: mutant b-Raf(V600E), read-out: mut-b-RAF (IC50 in uM)
# Outline: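 Active b-Raf(V600E) (~4 pM) pre-incubated 60 min at room temperature with compound and kinase-dead biotinylated Mek (~10 nM) in Tris pH 7.5, MgCl2, BSA, DTT; ATP-started reaction ran 3 h, EDTA-stopped. Phospho-MEK detected by anti-p-MEK AlphaScreen luminescence; IC50 by non-linear regression.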
# T1 sequence (P15056 whole entry V600E): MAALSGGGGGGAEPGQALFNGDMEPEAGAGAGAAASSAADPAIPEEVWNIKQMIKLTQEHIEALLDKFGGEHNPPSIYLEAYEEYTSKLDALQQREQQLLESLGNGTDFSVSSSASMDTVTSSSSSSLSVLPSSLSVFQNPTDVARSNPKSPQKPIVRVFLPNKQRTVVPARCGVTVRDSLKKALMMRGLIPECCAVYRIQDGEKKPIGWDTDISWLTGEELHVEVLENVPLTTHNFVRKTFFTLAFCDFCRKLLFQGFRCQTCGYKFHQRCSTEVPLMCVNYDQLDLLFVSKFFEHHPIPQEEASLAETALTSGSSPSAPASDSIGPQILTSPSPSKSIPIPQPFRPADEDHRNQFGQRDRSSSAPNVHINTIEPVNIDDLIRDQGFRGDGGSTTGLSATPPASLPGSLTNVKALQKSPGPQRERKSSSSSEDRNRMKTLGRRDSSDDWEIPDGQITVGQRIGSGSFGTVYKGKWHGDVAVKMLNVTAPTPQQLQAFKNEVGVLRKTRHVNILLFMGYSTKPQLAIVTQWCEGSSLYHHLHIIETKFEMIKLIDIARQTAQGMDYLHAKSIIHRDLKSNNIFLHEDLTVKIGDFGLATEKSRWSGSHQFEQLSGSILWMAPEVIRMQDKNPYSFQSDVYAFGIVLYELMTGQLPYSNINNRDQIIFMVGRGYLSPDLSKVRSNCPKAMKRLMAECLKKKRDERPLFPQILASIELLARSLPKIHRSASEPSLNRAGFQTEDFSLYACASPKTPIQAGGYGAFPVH
row,SMILES,IC50 [nM]
1,"COC(=O)N[C@@H](C)CNc1nccc(-c2nc(C(C)(C)C)[nH]c2-c2cnc(N)c(C(C)=O)c2)n1 [Compound 235, (S)-methyl-1-(4-(5-(5-acetyl-6-aminopyridin-3-yl)-2-tert-butyl-1H-imidazol-4-yl)pyrimidin-2-ylamino)propan-2-ylcarbamate]",0.4
2,"CCOC(=O)N[C@@H](C)CNc1nccc(-c2[nH]c(C(C)(C)C)nc2-c2cnc(N)c(OC)n2)n1 [Compound 236, (S)-ethyl 1-(4-(4-(5-amino-6-methoxypyrazin-2-yl)-2-tert-butyl-1H-imidazol-5-yl)pyrimidin-2-ylamino)propan-2-ylcarbamate]",0.1
3,"COc1nc(-c2nc(C(C)(C)C)[nH]c2-c2ccnc(NC[C@H](C)NC(=O)OC(C)C)n2)cnc1N [Compound 237, (S)-isopropyl 1-(4-(4-(5-amino-6-methoxypyrazin-2-yl)-2-tert-butyl-1H-imidazol-5-yl)pyrimidin-2-ylamino)propan-2-ylcarbamate]",0.1
4,"COc1nc(-c2nc(C(C)(C)C)[nH]c2-c2ccnc(NC[C@H](C)NC(=O)OCC(C)(C)C)n2)cnc1N [Compound 238, (S)-neopentyl 1-(4-(4-(5-amino-6-methoxypyrazin-2-yl)-2-tert-butyl-1H-imidazol-5-yl)pyrimidin-2-ylamino)propan-2-ylcarbamate]",0.1
5,"COc1nc(-c2nc(C(C)(C)C)[nH]c2-c2ccnc(NC[C@H](C)NC(=O)OCC(C)C)n2)cnc1N [Compound 239, (S)-isobutyl 1-(4-(4-(5-amino-6-methoxypyrazin-2-yl)-2-tert-butyl-1H-imidazol-5-yl)pyrimidin-2-ylamino)propan-2-ylcarbamate]",0.1
6,"COC(=O)N[C@@H](C)CNc1nccc(-c2nc(C(C)(C)C)[nH]c2-c2ccc3[nH]ccc3c2)n1 [Compound 240, (S)-methyl 1-(4-(2-tert-butyl-5-(1H-indol-5-yl)-1H-imidazol-4-yl)pyrimidin-2-ylamino)propan-2-ylcarbamate]",13.8
7,"COc1cc(-c2nc(C(C)(C)C)[nH]c2-c2ccnc(NC[C@H](C)NC(=O)[C@H](C)OC)n2)cnc1N [Compound 241, (S)-N-((S)-1-(4-(4-(6-amino-5-methoxypyridin-3-yl)-2-tert-butyl-1H-imidazol-5-yl)pyrimidin-2-ylamino)propan-2-yl)-2-methoxypropanamide]",0.7
8,"COc1nc(-c2nc(C(C)(C)C)[nH]c2-c2ccnc(NC[C@H](C)NC(=O)[C@H](C)OC)n2)cnc1N [Compound 242, (S)-N-((S)-1-(4-(4-(5-amino-6-methoxypyrazin-2-yl)-2-tert-butyl-1H-imidazol-5-yl)pyrimidin-2-ylamino)propan-2-yl)-2-methoxypropanamide]",0.2
9,"CCc1nc(-c2cnc(N)c(OC)c2)c(-c2ccnc(Nc3ccnc(OC)c3)n2)[nH]1 [Compound 243, 4-(4-(6-amino-5-methoxypyridin-3-yl)-2-ethyl-1H-imidazol-5-yl)-N-(2-methoxypyridin-4-yl)pyrimidin-2-amine]",0.4
10,"COc1cc(Nc2nccc(-c3[nH]c(C)nc3-c3cnc(N)c(OC)c3)n2)ccn1 [Compound 244, 4-(4-(6-amino-5-methoxypyridin-3-yl)-2-methyl-1H-imidazol-5-yl)-N-(2-methoxypyridin-4-yl)pyrimidin-2-amine]",3
11,"COc1cc(Nc2nccc(-c3[nH]c(C)nc3-c3cnc(N)c(OC)n3)n2)ccn1 [Compound 245, 4-(4-(5-amino-6-methoxypyrazin-2-yl)-2-methyl-1H-imidazol-5-yl)-N-(2-methoxypyridin-4-yl)pyrimidin-2-amine]",11
12,"COc1cc(-c2nc(C(C)(C)C)oc2-c2ccnc(NCC(C)C)c2)cnc1N [Compound 246, 4-(4-(6-amino-5-methoxypyridin-3-yl)-2-tert-butyloxazol-5-yl)-N-isobutylpyridin-2-amine]",0.1
13,"COCC(=O)N[C@@H](C)CNc1nccc(-c2[nH]c(-c3ccc(C(F)(F)F)cc3F)nc2-c2cnc(N)c(OC)n2)n1 [Compound 247, (S)-N-(1-(4-(4-(5-amino-6-methoxypyrazin-2-yl)-2-(2-fluoro-4-(trifluoromethyl)phenyl)-1H-imidazol-5-yl)pyrimidin-2-ylamino)propan-2-yl)-2-methoxyacetamide]",0.1
14,"COCC(=O)N[C@H](C)CNc1nccc(-c2[nH]c(-c3ccc(F)cc3)nc2-c2cnc(N)c(OC)n2)n1 [Compound 249, (R)-N-(1-(4-(4-(5-amino-6-methoxypyrazin-2-yl)-2-(4-fluorophenyl)-1H-imidazol-5-yl)pyrimidin-2-ylamino)propan-2-yl)-2-methoxyacetamide]",12
15,"COCC(=O)N[C@@H](C)CNc1nccc(-c2[nH]c(C3CC3)nc2-c2cnc(N)c(OC)n2)n1 [Compound 250, (S)-N-(1-(4-(4-(5-amino-6-methoxypyrazin-2-yl)-2-cyclopropyl-1H-imidazol-5-yl)pyrimidin-2-ylamino)propan-2-yl)-2-methoxyacetamide]",0.1
16,"COC(=O)N[C@@H](C)CNc1nccc(-c2[nH]c(C3(C)CC3)nc2-c2cnc(N)c(OC)n2)n1 [Compound 251, (S)-methyl 1-(4-(4-(5-amino-6-methoxypyrazin-2-yl)-2-(1-methylcyclopropyl)-1H-imidazol-5-yl)pyrimidin-2-ylamino)propan-2-ylcarbamate]",0.04
17,"COCC(=O)N[C@@H](C)CNc1nccc(-c2[nH]c(-c3ccc(F)cc3)nc2-c2nc(OC)c(N)nc2C)n1 [Compound 252, (S)-N-(1-(4-(4-(5-amino-6-methoxy-3-methylpyrazin-2-yl)-2-(4-fluorophenyl)-1H-imidazol-5-yl)pyrimidin-2-ylamino)propan-2-yl)-2-methoxyacetamide]",2.4

# Second part, the compound after the results:
row,IC50 [nM],SMILES
1,6.2,"COc1cc(Nc2nccc(-c3[nH]c(C(C)(C)C)nc3-c3nc(OC)c(N)nc3C)n2)ccn1 [Compound 253, 4-(4-(5-amino-6-methoxy-3-methylpyrazin-2-yl)-2-tert-butyl-1H-imidazol-5-yl)-N-(2-methoxypyridin-4-yl)pyrimidin-2-amine]"
2,3.8,"COc1nc(-c2nc(C(C)(C)C)[nH]c2-c2ccnc(NC[C@H](C)NC(=O)[C@H](C)OC)n2)c(C)nc1N [Compound 254, (S)-N-((S)-1-(4-(4-(5-amino-6-methoxy-3-methylpyrazin-2-yl)-2-tert-butyl-1H-imidazol-5-yl)pyrimidin-2-ylamino)propan-2-yl)-2-methoxypropanamide]"
3,3.9,"COCC(=O)N[C@@H](C)CNc1nccc(-c2[nH]c(C3CC3)nc2-c2nc(OC)c(N)nc2C)n1 [Compound 255, (S)-N-(1-(4-(4-(5-amino-6-methoxy-3-methylpyrazin-2-yl)-2-cyclopropyl-1H-imidazol-5-yl)pyrimidin-2-ylamino)propan-2-yl)-2-methoxyacetamide]"
4,1.1,"CCOC(=O)N[C@@H](C)CNc1nccc(-c2[nH]c(C(C)(C)C)nc2-c2nc(OC)c(N)nc2C)n1 [Compound 256, (S)-ethyl 1-(4-(4-(5-amino-6-methoxy-3-methylpyrazin-2-yl)-2-tert-butyl-1H-imidazol-5-yl)pyrimidin-2-ylamino)propan-2-ylcarbamate]"
5,1.2,"COc1nc(-c2nc(C(C)(C)C)[nH]c2-c2ccnc(NC[C@H](C)NC(=O)OC(C)C)n2)c(C)nc1N [Compound 257, (S)-isopropyl 1-(4-(4-(5-amino-6-methoxy-3-methylpyrazin-2-yl)-2-tert-butyl-1H-imidazol-5-yl)pyrimidin-2-ylamino)propan-2-ylcarbamate]"
6,1.1,"COc1nc(-c2nc(C(C)(C)C)[nH]c2-c2ccnc(NC[C@H](C)NC(=O)OCC(C)C)n2)c(C)nc1N [Compound 258, (S)-isobutyl 1-(4-(4-(5-amino-6-methoxy-3-methylpyrazin-2-yl)-2-tert-butyl-1H-imidazol-5-yl)pyrimidin-2-ylamino)propan-2-ylcarbamate]"
7,1.5,"COc1nc(-c2nc(C(C)(C)C)[nH]c2-c2ccnc(NC[C@H](C)NC(=O)OCC(C)(C)C)n2)c(C)nc1N [Compound 259, (S)-neopentyl 1-(4-(4-(5-amino-6-methoxy-3-methylpyrazin-2-yl)-2-tert-butyl-1H-imidazol-5-yl)pyrimidin-2-ylamino)propan-2-ylcarbamate]"
8,1,"COC(=O)N[C@@H](C)CNc1nccc(-c2[nH]c(C(C)(C)C)nc2-c2nc(OC)c(N)nc2C)n1 [Compound 260, (S)-methyl 1-(4-(4-(5-amino-6-methoxy-3-methylpyrazin-2-yl)-2-tert-butyl-1H-imidazol-5-yl)pyrimidin-2-ylamino)propan-2-ylcarbamate]"
9,0.1,"[2H]C([2H])([2H])Oc1nc(-c2nc(C(C)(C)C)[nH]c2-c2ccnc(NC[C@H](C)NC(=O)OC)n2)cnc1N [Compound 261, (S)-methyl 1-(4-(4-(5-amino-6-(D3-methoxy)pyrazin-2-yl)-2-tert-butyl-1H-imidazol-5-yl)pyrimidin-2-ylamino)propan-2-ylcarbamate]"
10,0.2,"COC(=O)N[C@@H](C)CNc1nccc(-c2nc(C(C)(C)C)[nH]c2-c2cnc3[nH]ccc3c2)n1 [Compound 262, (S)-methyl 1-(4-(2-tert-butyl-5-(1H-pyrrolo[2,3-b]pyridin-5-yl)-1H-imidazol-4-yl)pyrimidin-2-ylamino)propan-2-ylcarbamate]"
11,65,"COC(=O)N[C@@H](C)CNc1nccc(-c2nc(C(C)(C)C)[nH]c2-c2cnc3[nH]cc(C(F)(F)F)c3c2)n1 [Compound 263, (S)-methyl 1-(4-(2-tert-butyl-5-(3-(trifluoromethyl)-1H-pyrrolo[2,3-b]pyridin-5-yl)-1H-imidazol-4-yl)pyrimidin-2-ylamino)propan-2-ylcarbamate]"
12,40,"CCS(=O)(=O)N1CCN(c2nc(-c3ccncc3)c(-c3cnc(N)c(OC)c3)[nH]2)CC1 [Compound 264, 5-(2-(4-(ethylsulfonyl)piperazin-1-yl)-4-(pyridin-4-yl)-1H-imidazol-5-yl)-3-methoxypyridin-2-amine]"
